Data on ten compounds can be found in patent US9978954B2, “Benzobis (thiadiazole) derivative, ink comprising same, and organic electronic device comprising same” (UBE INDUSTRIES, LTD., priority 2013, dated 2018).

The data set in a line: Evaluation of solubility in organic solvents (visual observation of complete dissolution). Type of data set: physicochemical. As for the experimental part: [Evaluation of Solubility]
The evaluation of the solubility of the synthesized compound was conducted by the following method.
About 2-3 mg of the compound was precisely weighed, and each solvent was added to the compound such that a predetermined concentration of the solute (0.5 wt %, 0.3 wt %, 0.2 wt %, 0.1 wt %, 0.05 wt %, or 0.03 wt %) was reached. The resultant mixture was stirred for 30 minutes at a predetermined temperature, and then it was evaluated by visual appearance observation whether or not the solute (synthesized compound) was completely dissolved in the solvent, which was the result of the evaluation of the solubility. As the solvent, chloroform (boiling point 61° C.), toluene (boiling point 111° C.), xylene (boiling point 144° C.), mesitylene (boiling point 165° C.), chlorobenzene (boiling point 130° C.), para-chlorotoluene (boiling point 162° C.), and ortho-dichlorobenzene (boiling point 181° C.) were used.

The mark [1] stands for this setting: chloroform, 25° C. (room temperature).

A value given as a limit tells only on which side of the number the result lay.

Turning to `FC(F)(F)c1ccc(-c2ccc(-c3c4c(c(-c5ccc(-c6ccc(C(F)(F)F)cc6)s5)c5nsnc35)N=S=N4)s2)cc1` [Compound (RC2), 4,8-bis[5-(4-(trifluoromethyl)phenyl)thiophene-2-yl]benzo[1,2-c:4,5-c′]bis[1,2,5]thiadiazole, reference compound], the “solubility (solute concentration completely dissolved)” value (shortened to “solubility”) (chlorobenzene, 100° C.) was less than 0.03 wt %; the “solubility” value (mesitylene, 100° C.) was less than 0.03 wt %; the “solubility” value (mesitylene, 130° C.) was less than 0.3 wt %; the “solubility” value (ortho-dichlorobenzene, 100° C.) is given as less than 0.03 wt %; the “solubility” value (toluene, 100° C.) was less than 0.03 wt %.

As to `CCCCCCCCCCCCc1cc(-c2ccc(-c3c4c(c(-c5ccc(-c6ccc(C(F)(F)F)c(CCCCCCCCCCCC)c6)s5)c5nsnc35)N=S=N4)s2)ccc1C(F)(F)F` [Compound (C27), 4,8-bis[5-(3-dodecyl-4-(trifluoromethyl)phenyl)thiophene-2-yl]benzo[1,2-c:4,5-c′]bis[1,2,5]thiadiazole], the “solubility” value (1-methylnaphthalene, 60° C.) is no less than 0.3 wt %; the “solubility” value (chloroform, 60° C.) was no less than 0.1 wt %; the “solubility” value (mesitylene, 60° C.) is given as no less than 0.3 wt %; the “solubility” value (ortho-dichlorobenzene, 60° C.) is reported as no less than 0.3 wt %; the “solubility” value (toluene, 60° C.) is on record as no less than 0.3 wt %.

Regarding `CCCCCCCCCCCCCCCCCCc1cc(-c2ccc(-c3c4c(c(-c5ccc(-c6ccc(C#N)c(CCCCCCCCCCCCCCCCCC)c6)s5)c5nsnc35)N=S=N4)s2)ccc1C#N` [Compound (C20), 4,8-bis[5-(4-cyano-3-octadecylphenyl)thiophene-2-yl]benzo[1,2-c:4,5-c′]bis[1,2,5]thiadiazole], the “solubility” value by setting is: (1-methylnaphthalene, 100° C.) no less than 0.3 wt %; (chlorobenzene, 100° C.) no less than 0.3 wt %; (chloroform, 60° C.) no less than 0.1 wt %; (ortho-dichlorobenzene, 80° C.) no less than 0.3 wt %.

Regarding `CCCCCCc1ccc(-c2ccc(-c3c4c(c(-c5ccc(-c6ccc(CCCCCC)c(C(F)(F)F)c6)s5)c5nsnc35)N=S=N4)s2)cc1C(F)(F)F` [Compound (C9), 4,8-bis[5-(4-hexyl-3-(trifluoromethyl)phenyl)thiophene-2-yl]benzo[1,2-c:4,5-c′]bis[1,2,5]thiadiazole], the “solubility” value (chlorobenzene, 25° C.) is listed as no less than 0.03 wt %; the “solubility” value (mesitylene, 25° C.) is recorded as no less than 0.03 wt %; the “solubility” value (mesitylene, 60° C.) is no less than 0.1 wt %; the “solubility” value (mesitylene, 80° C.) is reported as no less than 0.5 wt %; the “solubility” value (ortho-dichlorobenzene, 25° C.) is on record as no less than 0.03 wt %; the “solubility” value (toluene, 25° C.) is listed as no less than 0.03 wt %. Besides, the “solubility” value is given as no less than 0.1 wt % (toluene, 60° C.) and no less than 0.5 wt % (toluene, 80° C.).

`FC(F)(F)Sc1cccc(-c2ccc(-c3c4c(c(-c5ccc(-c6cccc(SC(F)(F)F)c6)s5)c5nsnc35)N=S=N4)s2)c1` [Compound (C6), 4,8-bis[5-(3-((trifluoromethyl)thio)phenyl)thiophene-2-yl]benzo[1,2-c:4,5-c′]bis[1,2,5]thiadiazole]: the “solubility” value reads like this: (chlorobenzene, 80° C.) no less than 0.1 wt %; (chlorobenzene, 130° C.) no less than 0.5 wt %; (mesitylene, 80° C.) no less than 0.1 wt %; (mesitylene, 130° C.) no less than 0.3 wt %; (ortho-dichlorobenzene, 80° C.) no less than 0.1 wt %; (ortho-dichlorobenzene, 130° C.) no less than 0.5 wt %. Where the note is “toluene, 80° C.”, the “solubility” value is given as no less than 0.1 wt %.

For the compound `CCCCCCCCCCCCc1ccc(-c2ccc(-c3c4c(c(-c5ccc(-c6ccc(CCCCCCCCCCCC)c(C(F)(F)F)c6)s5)c5nsnc35)N=S=N4)s2)cc1C(F)(F)F` [Compound (C28), 4,8-bis[5-(4-dodecyl-3-(trifluoromethyl)phenyl)thiophene-2-yl]benzo[1,2-c:4,5-c′]bis[1,2,5]thiadiazole], the “solubility” value by setting is: (1-methylnaphthalene, 100° C.) no less than 0.3 wt %; (chloroform, 80° C.) no less than 0.1 wt %; (mesitylene, 100° C.) no less than 0.3 wt %; (ortho-dichlorobenzene, 80° C.) no less than 0.3 wt %; (toluene, 100° C.) no less than 0.3 wt %.

Regarding `CCCCC(CC)Cc1ccc(-c2ccc(-c3c4c(c(-c5ccc(-c6ccc(CC(CC)CCCC)c(C(F)(F)F)c6)s5)c5nsnc35)N=S=N4)s2)cc1C(F)(F)F` (centres unmarked) [Compound (C31)], the “solubility” value is on record as no less than 0.3 wt % (1-methylnaphthalene, 25° C. (room temperature)); no less than 0.2 wt % under setting [1]; no less than 0.3 wt % (mesitylene, 25° C.); no less than 0.3 wt % (ortho-dichlorobenzene, 25° C.); no less than 0.3 wt % (toluene, 25° C.).

On to `CCCCCCCc1cc(-c2ccc(-c3c4c(c(-c5ccc(-c6ccc(C#N)c(CCCCCCC)c6)s5)c5nsnc35)N=S=N4)s2)ccc1C#N` [Compound (C13), 4,8-bis[5-(4-cyano-3-heptylphenyl)thiophene-2-yl]benzo[1,2-c:4,5-c′]bis[1,2,5]thiadiazole], for which the “solubility” value by setting is: (chlorobenzene, 80° C.) no less than 0.3 wt %; under setting [1], no less than 0.2 wt %; (ortho-dichlorobenzene, 80° C.) no less than 0.3 wt %; (para-chlorotoluene, 80° C.) no less than 0.3 wt %.

Regarding `FC(F)(F)Oc1ccccc1-c1ccc(-c2c3c(c(-c4ccc(-c5ccccc5OC(F)(F)F)s4)c4nsnc24)N=S=N3)s1` [Compound (RR1), 4,8-bis[5-(2-(trifluoromethoxy)phenyl)thiophene-2-yl]benzo[1,2-c:4,5-c′]bis[1,2,5]thiadiazole, reference compound], the “solubility” value is, setting by setting: (mesitylene, 80° C.) no less than 0.1 wt %; (toluene, 80° C.) no less than 0.1 wt %.

For the compound `CCCCCCCCCCC(F)(F)c1cccc(-c2ccc(-c3c4c(c(-c5ccc(-c6cccc(C(F)(F)CCCCCCCCCC)c6)s5)c5nsnc35)N=S=N4)s2)c1` [Compound (C4), 4,8-bis[5-(3-(1,1-difluoroundecyl)phenyl)thiophene-2-yl]benzo[1,2-c:4,5-c′]bis[1,2,5]thiadiazole], the “solubility” value by setting is: (chlorobenzene, 25° C.) no less than 0.03 wt %; (mesitylene, 25° C.) no less than 0.03 wt %; (mesitylene, 60° C.) no less than 0.1 wt %; (mesitylene, 100° C.) no less than 0.5 wt %; (ortho-dichlorobenzene, 25° C.) no less than 0.03 wt %; (toluene, 25° C.) no less than 0.03 wt %. The “solubility” value by setting is: (toluene, 60° C.) no less than 0.1 wt %; (toluene, 100° C.) no less than 0.5 wt %.
